In ChEMBL document CHEMBL2440076, “New triarylpyrazoles as broad-spectrum anticancer agents: design, synthesis, and biological evaluation” (Eur J Med Chem, 2013):

Tests used:
Format in all cases: functional
[1] = tested on: OVCAR-5; test: Growth inhibition of human OVCAR5 cells assessed as cell growth at 3X10'-7 M after 48 hrs by sulforhodamine B assay; conditions: OVCAR-5, 48 h, read-out: Activity
[2] = tested on: UACC-62; test: Growth inhibition of human UACC62 cells assessed as cell growth at 3X10'-7 M after 48 hrs by sulforhodamine B assay; conditions: UACC-62, 48 h, read-out: Activity
[3] = tested on: M14; test: Growth inhibition of human M14 cells assessed as cell growth at 3X10'-7 M after 48 hrs by sulforhodamine B assay; conditions: M14, 48 h, read-out: Activity
[4] = tested on: SF-539; test: Growth inhibition of human SF539 cells assessed as cell growth at 3X10'-7 M after 48 hrs by sulforhodamine B assay; conditions: SF-539, 48 h, read-out: Activity
[5] = Growth inhibition of human HCC2998 cells assessed as cell growth at 3X10'-7 M after 48 hrs by sulforhodamine B assay; conditions: HCC 2998, 48 h, read-out: Activity
[6] = tested on: NCI-H522; test: Growth inhibition of human NCI-H522 cells assessed as cell growth at 3X10'-7 M after 48 hrs by sulforhodamine B assay; conditions: NCI-H522, 48 h, read-out: Activity
[7] = tested on: HOP-62; test: Growth inhibition of human HOP62 cells assessed as cell growth at 3X10'-7 M after 48 hrs by sulforhodamine B assay; conditions: HOP-62, 48 h, read-out: Activity
[8] = tested on: K562; test: Growth inhibition of human K562 cells assessed as cell growth at 3X10'-7 M after 48 hrs by sulforhodamine B assay; conditions: K562, 48 h, read-out: Activity
[9] = tested on: MDA-MB-468; test: Growth inhibition of human MDA-MB-468 cells assessed as cell growth at 3X10'-8 M after 48 hrs by sulforhodamine B assay; conditions: MDA-MB-468, 48 h, read-out: Activity
[10] = tested on: CAKI-1; test: Growth inhibition of human CAKI-1 cells assessed as cell growth at 3X10'-8 M after 48 hrs by sulforhodamine B assay; conditions: CAKI-1, 48 h, read-out: Activity
[11] = tested on: U-251; test: Growth inhibition of human U251 cells assessed as cell growth at 3X10'-8 M after 48 hrs by sulforhodamine B assay; conditions: U-251, 48 h, read-out: Activity
[12] = tested on: COLO 205; test: Growth inhibition of human COLO205 cells assessed as cell growth at 3X10'-8 M after 48 hrs by sulforhodamine B assay; conditions: COLO 205, 48 h, read-out: Activity
[13] = tested on: NCI-H322M; test: Growth inhibition of human NCI-H322M cells assessed as cell growth at 3X10'-8 M after 48 hrs by sulforhodamine B assay; conditions: read-out: Activity
[14] = tested on: HOP-62; test: Growth inhibition of human HOP62 cells assessed as cell growth at 3X10'-8 M after 48 hrs by sulforhodamine B assay; conditions: HOP-62, 48 h, read-out: Activity
[15] = tested on: A549; test: Growth inhibition of human A549/ATCC cells assessed as cell growth at 3X10'-8 M after 48 hrs by sulforhodamine B assay; conditions: A549, 48 h, read-out: Activity
[16] = tested on: BT-549; test: Growth inhibition of human BT549 cells assessed as cell growth at 3X10'-9 M after 48 hrs by sulforhodamine B assay; conditions: BT-549, 48 h, read-out: Activity
[17] = tested on: UO-31; test: Growth inhibition of human UO31 cells assessed as cell growth at 3X10'-9 M after 48 hrs by sulforhodamine B assay; conditions: UO-31, 48 h, read-out: Activity
[18] = tested on: OVCAR-8; test: Growth inhibition of human OVCAR8 cells assessed as cell growth at 3X10'-9 M after 48 hrs by sulforhodamine B assay; conditions: OVCAR-8, 48 h, read-out: Activity
[19] = tested on: OVCAR-3; test: Growth inhibition of human OVCAR3 cells assessed as cell growth at 3X10'-9 M after 48 hrs by sulforhodamine B assay; conditions: OVCAR-3, 48 h, read-out: Activity
[20] = tested on: IGROV-1; test: Growth inhibition of human IGROV1 cells assessed as cell growth at 3X10'-9 M after 48 hrs by sulforhodamine B assay; conditions: IGROV-1, 48 h, read-out: Activity
[21] = tested on: SK-MEL-2; test: Growth inhibition of human SK-MEL-2 cells assessed as cell growth at 3X10'-5 M after 48 hrs by sulforhodamine B assay; conditions: SK-MEL-2, 48 h, read-out: Activity
[22] = tested on: SNB-19; test: Growth inhibition of human SNB19 cells assessed as cell growth at 3X10'-5 M after 48 hrs by sulforhodamine B assay; conditions: SNB-19, 48 h, read-out: Activity
[23] = tested on: SF-268; test: Growth inhibition of human SF268 cells assessed as cell growth at 3X10'-5 M after 48 hrs by sulforhodamine B assay; conditions: SF-268, 48 h, read-out: Activity
[24] = tested on: COLO 205; test: Growth inhibition of human COLO205 cells assessed as cell growth at 3X10'-5 M after 48 hrs by sulforhodamine B assay; conditions: COLO 205, 48 h, read-out: Activity
[25] = tested on: NCI-H522; test: Growth inhibition of human NCI-H522 cells assessed as cell growth at 3X10'-5 M after 48 hrs by sulforhodamine B assay; conditions: NCI-H522, 48 h, read-out: Activity
[26] = tested on: RPMI-8226; test: Growth inhibition of human RPMI8226 cells assessed as cell growth at 3X10'-5 M after 48 hrs by sulforhodamine B assay; conditions: RPMI-8226, 48 h, read-out: Activity
[27] = tested on: HL-60(TB); test: Growth inhibition of human HL-60(TB) cells assessed as cell growth at 3X10'-5 M after 48 hrs by sulforhodamine B assay; conditions: HL-60, 48 h, read-out: Activity
[28] = tested on: MDA-MB-468; test: Growth inhibition of human MDA-MB-468 cells assessed as cell growth at 3X10'-6 M after 48 hrs by sulforhodamine B assay; conditions: MDA-MB-468, 48 h, read-out: Activity
[29] = tested on: CCRF-CEM; test: Growth inhibition of human CCRF-CEM cells assessed as cell growth at 3X10'-5 M after 48 hrs by sulforhodamine B assay; conditions: read-out: Activity
[30] = Growth inhibition of human Hs 578T cells assessed as cell growth at 3X10'-6 M after 48 hrs by sulforhodamine B assay; conditions: read-out: Activity
[31] = tested on: MDA-MB-231; test: Growth inhibition of human MDA-MB-231 cells assessed as cell growth at 3X10'-6 M after 48 hrs by sulforhodamine B assay; conditions: MDA-MB-231, 48 h, read-out: Activity
[32] = tested on: OVCAR-8; test: Growth inhibition of human OVCAR8 cells assessed as cell growth at 3X10'-6 M after 48 hrs by sulforhodamine B assay; conditions: OVCAR-8, 48 h, read-out: Activity
[33] = tested on: Malme-3M; test: Growth inhibition of human MALME-3M cells assessed as cell growth at 3X10'-6 M after 48 hrs by sulforhodamine B assay; conditions: read-out: Activity
[34] = tested on: TK-10; test: Growth inhibition of human TK10 cells assessed as cell growth at 3X10'-7 M after 48 hrs by sulforhodamine B assay; conditions: TK-10, 48 h, read-out: Activity
[35] = tested on: TK-10; test: Growth inhibition of human TK10 cells assessed as cell growth at 3X10'-5 M after 48 hrs by sulforhodamine B assay; conditions: TK-10, 48 h, read-out: Activity
[36] = tested on: SNB-75; test: Growth inhibition of human SNB75 cells assessed as cell growth at 5X10'-6 M after 48 hrs by sulforhodamine B assay; conditions: SNB-75, 48 h, read-out: Activity

SMILES | growth at 0.3 µM [1] | growth at 0.3 µM [2] | growth at 0.3 µM [3] | growth at 0.3 µM [4] | growth at 0.3 µM [5] | growth at 0.3 µM [6] | growth at 0.3 µM [7] | growth at 0.3 µM [8] | growth at 0.03 µM [9] | growth at 0.03 µM [10] | growth at 0.03 µM [11] | growth at 0.03 µM [12] | growth at 0.03 µM [13] | growth at 0.03 µM [14] | growth at 0.03 µM [15] | growth at 0.003 µM [16] | growth at 0.003 µM [17] | growth at 0.003 µM [18] | growth at 0.003 µM [19] | growth at 0.003 µM [20] | further results
O=C(Nc1cccc(-n2cc(-c3ccncc3)c(-c3ccc(Cl)c(O)c3)n2)c1)Nc1ccc(Cl)c(Cl)c1 | 104% | 91% | 96% | 87% | 115% | 97% | 111% | 110% | 90% | 94% | 100% | 97% | 100% | 96% | 100% | 99% | 86% | 103% | 96% | 103% | growth at 30 µM [21]: -50%; growth at 30 µM [22]: 18%; growth at 30 µM [23]: -21%; growth at 30 µM [24]: -70%; growth at 30 µM [25]: -13%; growth at 30 µM [26]: 3%; growth at 30 µM [27]: 1%; growth at 3 µM [28]: 2%; growth at 30 µM [29]: 5%; growth at 3 µM [30]: -1%; growth at 3 µM [31]: 15%; growth at 3 µM [32]: 16%; growth at 3 µM [33]: 10%; growth at 0.3 µM [34]: 112%
O=C(Nc1cccc(-n2cc(-c3ccncc3)c(-c3ccc(Cl)c(O)c3)n2)c1)Nc1cccc(C(F)(F)F)c1 | 105% | 92% | 100% | 92% | 106% | 98% | 105% | 101% | 89% | 94% | 100% | 99% | 95% | 98% | 100% | 91% | 89% | 99% | 96% | 98% | growth at 30 µM [35]: 7%; growth at 30 µM [21]: -32%; growth at 30 µM [22]: 20%; growth at 30 µM [23]: -17%; growth at 30 µM [24]: -14%; growth at 30 µM [25]: -13%; growth at 30 µM [26]: 5%; growth at 30 µM [27]: 1%; growth at 3 µM [28]: 17%; growth at 30 µM [29]: 7%; growth at 3 µM [30]: 50%; growth at 3 µM [31]: 52%; growth at 3 µM [32]: 31%; growth at 3 µM [33]: 37%; growth at 0.3 µM [34]: 107%
O=C(Nc1cccc(-n2cc(-c3ccncc3)c(-c3ccc(Cl)c(O)c3)n2)c1)Nc1ccc(Cl)c(C(F)(F)F)c1 | 88% | 89% | 94% | 89% | 95% | 82% | 104% | 88% | 85% | 91% | 96% | 100% | 105% | 100% | 94% | 102% | 94% | 100% | 109% | 98% | growth at 30 µM [35]: -19%; growth at 30 µM [21]: -76%; growth at 30 µM [22]: -42%; growth at 30 µM [23]: -20%; growth at 30 µM [24]: -90%; growth at 30 µM [25]: -55%; growth at 30 µM [26]: -15%; growth at 30 µM [27]: 6%; growth at 3 µM [28]: -27%; growth at 30 µM [29]: -14%; growth at 3 µM [30]: 9%; growth at 3 µM [31]: -38%; growth at 3 µM [32]: -16%; growth at 3 µM [33]: -32%; growth at 0.3 µM [34]: 101%
O=C(Nc1cccc(-n2cc(-c3ccncc3)c(-c3ccc(Cl)c(O)c3)n2)c1)Nc1cc(C(F)(F)F)cc(C(F)(F)F)c1 | – | – | – | – | – | – | – | – | – | – | – | – | – | – | – | – | – | – | – | – | growth at 5 µM [36]: -46%
O=C(Nc1cccc(-n2cc(-c3ccncc3)c(-c3ccc(Cl)c(O)c3)n2)c1)c1ccc(N2CCOCC2)c(C(F)(F)F)c1 | – | – | – | – | – | – | – | – | – | – | – | – | – | – | – | – | – | – | – | – | growth at 5 µM [36]: 20%
